Results from patent publication US9063163B2, “Lyophilised dabigatran” (Boehringer Ingelheim International GmbH, priority 2009, dated 2015).

Tests used:
[1] = Hygroscopicity of dabigatran (descriptive); type: physicochemical; settings: leads to formation of different hydrated forms
[2] = Solubility of dabigatran (descriptive); type: physicochemical

Hygroscopicity [1]: hygroscopic
Solubility [2]: sparingly soluble
Compound: [H]/N=C(/N)c1ccc(NCc2nc3cc(C(=O)N(CCC(=O)O)c4ccccn4)ccc3n2C)cc1 [dabigatran]
